The source of these data is patent publication US5071850A, “2,3-dihydro-3-arylalkylaminoalkyl-4H-1,3-benzoxazin-4-one derivatives, their preparation and their application as medicinal products which are useful in therapy” (Pierre Fabre Medicament, priority 1988, dated 1991).

For data set [1] the following is noted: Finkelstein and Chiang, J. Med. Chem. 11, 1038 (1968); cited from earlier work.
The subject of another data set is conscious dogs. The data set is described as follows: Bradycardic effect in conscious dogs with hydralazine-raised heart rate (Kobinger and Lillie). It counts as in vivo. Particulars: 1 mg/kg iv. Here is the method: When the latter has stabilized, the test products are injected intravenously.
For the next data set, the system named is Left atrium. The data set is described as follows: Inotropic effect on isolated electrically stimulated left atrium. Also noted: species or system guineapig. To be noted: Cavia porcellus, electrically stimulated at fixed rhythm, percentage change. Here is the method:
(§1) c) Finally, the chronotropic and inotropic activities were measured on isolated guineapig atria placed in isolated organ cells. The organs are then connected to force gauges. The right atrium, beating in a spontaneous rhythm, enables the negative chronotropic effects of the products to be assessed. As regards the left atria, these are electrically stimulated at a fixed rhythm so as to evaluate actions on the inotropic effect. The percentage changes are recorded in Table V for the compounds A, B, G and J, by way of non-limiting examples.

In another data set the test system is anesthetized rats. The data set is described as follows: Coronary ligation in anesthetized rats (antiarrhythmic activity and heart rate). The class given is in vivo. To be noted: for % fall in heart rate after 1 min: 1 min after injection; for % fall in heart rate after 1 min / % fall in heart rate after 10 min: % change relative to controls; for % fall in heart rate after 10 min: 10 min after injection; for % fall in arrhythmias: coronary ligation. The source says: a) The technique of coronary ligation in anesthetized rats according to Clark et al. (J. Pharm. […] SC denotes the percentage reduction in disorders of rhythm induced by these compounds, n denotes the number of animals.

A further data set concerns Right atrium. The data set is described as follows: Chronotropic effect on isolated spontaneously beating right atrium. To be noted: Cavia porcellus, spontaneous rhythm, percentage change. Also noted: species or system guineapig. As for the experimental part: as §1
The next data set can be described thus: Solubility in water. The class given is physicochemical.
For data set [2], the system named is rats anesthetized with pentobarbital sodium. The data set is described as follows: Bradycardic effect and intracardiac conduction times (ECG, arterial pressure) in pentobarbital-anesthetized rats. To be noted: for % ABP (mean arterial blood pressure) / % HR (heart rate): % change at peak of action; for % modification of the ECG intervals: PQ (atrioventricular conduction time) / % modification of the ECG intervals: QRS (intraventricular conduction time) / % modification of the ECG intervals: QTS / % modification of the ECG intervals: TP (electrocardiac diastole): at peak of action. The class given is in vivo. Here is the method:
b) The bradycardic effect and the analysis of the intracardiac conduction times were studied on rats anesthetized with pentobarbital sodium (40 mg/kg ip) and left in spontaneous ventilation. The electrocardiogram is recorded simultaneously in the standard leads OI, OII and OIII; the arterial blood pressure is measured on a femoral artery. The percentage changes are considered at the peak of action. The results relating to the compounds A, B, J, G and N are given in Table III, by way of non-limiting example.

Data set [3] in a line: Acute intravenous toxicity in mice (LD50, Miller and Tainter). To be noted: mouse, in vivo, mice weighing 20 to 22 g. Here is the method:
The chemical compounds described above were subjected to toxicity controls. This study was carried out on conventional mice weighing 20 to 22 g. The watersoluble salts of the compounds of general formula I were administered intravenously. The 50% lethal dose (LD50) is calculated according to the method of Miller and Tainter (Proc. Soc. Exp. Biol. Med. 1944, 57, 261).

Turning to `CCN(CC)CCN1COc2ccccc2C1=O` [3-(2-diethylaminoethyl)-2,3-dihydro-4H-1,3-benzoxazin-4-one], in data set [1], the pharmacological result is “inactive”.
Usually inhibition stands for the relative decrease from the control value, in per cent. Higher therefore signals a response far below the control. By solubility is commonly meant the concentration that dissolves in the medium under given conditions. What is called LD50 is the dose expected to kill half of the subjects tested. In turn, `COc1ccc(CCN(C)CCCN2COc3cc(OC)c(OC)cc3C2=O)cc1OC.Cl` [Compound B, 2,3-Dihydro-6,7-dimethoxy-3-{3-[(methyl)(3,4-dimethoxyphenethyl)amino]propyl}-4H-1,3-benzoxazin-4-one hydrochloride] returned a Heart rate after in the data set on conscious dogs (after test product, hydralazine tachycardia) of 105 bts/min. In the data set on conscious dogs (before test product, after hydralazine 1 mg/kg iv), this compound yielded a Heart rate before of 175 bts/min. Also, in the data set with conscious dogs (hydralazine tachycardia), the “Heart rate Change” value was -40%. Moreover, in the data set on Left atrium (0.3 ug/ml), 0.3 µg/mL produced 9% inhibition. Moreover, the inhibition at 1 µg/mL in the data set with Left atrium (1 ug/ml) amounted to 6.5%. Moreover, in the data set on anesthetized rats (2.5 mg/kg iv), the “% fall in heart rate after 1 min” value was -50%, the “% fall in heart rate after 10 min” value is listed as -28% and the “% fall in arrhythmias” value is given as -38%. Besides, in the data set on anesthetized rats (10 mg/kg iv), the “% fall in heart rate after 1 min” value is reported as -66%, the “% fall in heart rate after 10 min” value is -60% and the “% fall in arrhythmias” value is recorded as -80%. This compound also yielded an inhibition at 0.3 µg/mL in the data set with Right atrium (0.3 ug/ml) of 27%. For the same compound, in the data set with Right atrium (1 ug/ml), the inhibition at 1 µg/mL turned out to be 64%. The same compound gave a solubility in “Solubility in water” of more than 100 mg/mL. In data set [2] (1 mg/kg iv), the “% ABP (mean arterial blood pressure)” value is -16%, the “% HR (heart rate)” value is listed as -32%, the “% modification of the ECG intervals: PQ (atrioventricular conduction time)” value is recorded as “+9%” and the “% modification of the ECG intervals: QRS (intraventricular conduction time)” value is listed as “+12%”. In addition, in data set [2] (1 mg/kg iv), the “% modification of the ECG intervals: QTS” value is “+38%” and the “% modification of the ECG intervals: TP (electrocardiac diastole)” value is reported as “+95%”. In data set [2] (3 mg/kg iv), the “% ABP (mean arterial blood pressure)” value is -34%, the “% HR (heart rate)” value was -55%, the “% modification of the ECG intervals: PQ (atrioventricular conduction time)” value is recorded as “+17%” and the “% modification of the ECG intervals: QRS (intraventricular conduction time)” value is “+24%”. Also, in data set [2] (3 mg/kg iv), the “% modification of the ECG intervals: QTS” value is listed as “+75%” and the “% modification of the ECG intervals: TP (electrocardiac diastole)” value is listed as “+211%”. The compound also came in with an LD50 in data set [3] of 48 mg/kg.
